From article PMC7556269, “Metabolic Profiling of a CB2 Agonist, AM9338, Using LC-MS and Microcoil-NMR: Identification of a Novel Dihydroxy Adamantyl Metabolite” (Frontiers in Pharmacology, 2020)
Where two headings read alike, the source gives them in different places.

Experiments:
mCB2 = mCB2 (Mus musculus, UniProt P47936); test: CB2 receptor binding affinity (mCB2); conditions: stated in introduction, no method or reference given
[1] = Microsomal stability, human liver microsomes; format: in vitro ADME; parameters: half-life / microsomal CLint: dose or concentration left out as unconfirmed; conditions: for half-life: human, liver microsomes, pH 7.4, human liver microsomes, read-out: t1/2 (min) (Mean ± S.D.); for CLint scaled: read-out: CLint (ml/min/kg) (Mean ± S.D.)
Description: (§1) AM9338 (50 µM) was incubated at 37 °C with mouse, rat or human microsomes (0.5 mg/ml) in 50 mM potassium phosphate buffer, pH 7.4. Samples were taken immediately after the addition of NADPH (final concentration 1 mM) and again after 30 and 60 min of incubation; the reaction was terminated through protein precipitation with ice cold methanol followed by centrifugation at 4000 g for 10 min. The resulting supernatant was analyzed using LC-MS/MS.
(§2) Chromatographic separation of AM9338 and its metabolites was achieved using a Phenomenex Kinetex F5 column (4.6 × 150 mm, 100 Å pore size, 2.6 μm particle size) on a Thermo Accela HPLC (Thermo, San Jose, CA, USA) coupled to an API-4000 Q-Trap (AB Sciex, Concord, Ontario, Canada). Samples were eluted with mobile phases consisting of 0.1 % formic acid in acetonitrile (A) and 0.1 % formic acid in HPLC grade water (B) starting at 10% A for 2.6 min, ramping to 90%A over the next 9.4 min, and holding at 90%A for 2.8 min before returning to initial conditions for a total run time of 18.5 min; the flow rate was 0.8 ml/min and the autosampler and column oven were set to 4°C and 35°C, respectively. The mass spectrometer was operated in electrospray ionization (ESI) positive ion mode with the following conditions: ion spray voltage = 5,500 V; heater temperature = 550 °C; curtain gas = 20 psi; Q2 collision gas = set as high; source gas 1 (GS1) = 50 psi; source gas 2 (GS2) = 55 psi. High purity nitrogen was used as a source and collision gas and the compounds were detected in the multiple reaction monitoring (MRM) mode.
(§3) The susceptibility of AM9338 to CYP enzymes or hydrolytic enzymes was tested at 37°C in human, mouse and rat liver microsomes, in the presence or absence of NADPH. […] The disappearance of AM9338 in microsomes followed a first-order elimination kinetics with low elimination half-life (t1/2 < 4 min) and high intrinsic microsomal clearance of microsomal protein across all three species as shown in Table 1 .

[2] = Non-compartmental pharmacokinetics in mice after i.v. and oral dosing; format: in vivo; conditions: for bioavailability: oral 8 mg/kg vs I.V. 2 mg/kg
Description: The non-compartmental pharmacokinetic parameters following intravenous (2 mg/kg, i.v.) and oral (8 mg/kg, p.o.) dosing are presented in Table 2 .

[3] = Microsomal stability, rat liver microsomes; format: in vitro ADME; parameters: microsomal CLint / half-life: dose or concentration left out as unconfirmed; conditions: for CLint scaled: read-out: CLint (ml/min/kg) (Mean ± S.D.); for half-life: rat, liver microsomes, pH 7.4, rat liver microsomes, read-out: t1/2 (min) (Mean ± S.D.)
Description: as §1, §2, §3

[4] = Metabolite profile after incubation with pooled mouse liver microsomes (LC-UV/LC-MS); format: in vitro ADME; conditions: NADPH, 37°C, 60 min
Description: as §1
Reconstituted extracts from the microsomal incubations were injected on a Supelco Discovery column C18, 250 × 4.6 mm column (Millipore-Sigma, St Louis, MO) on Thermo Accela HPLC system (Thermo Fisher Scientific, Austin, TX). The column temperature was maintained at 35°C, the flow rate was 0.8 ml/min, the injection volume was 20 µl and UV detector was set at 300 nm, maximal absorbance wavelength for AM9338. […]
The metabolites M3 (trihydroxy), M4 (trihydroxy) and M8 (Ketone-hydroxyl) appear to be the metabolic end products of AM9338. […] The estimated relative percentage of each metabolite was calculated using the UV peak areas at the end of the incubation: M1 (49%), M2 (37%), M3 (1%), M4 (5%), M5 (4%), M7 (3%), M8 (1%), and M9 (2%). […] Human (HLM), Mouse (MLM) and rat liver microsomes (RLM) generated the very similar metabolite profile, with M1 and M2 being the major metabolic products, appearing in similar order of formation and relative quantities. […]

hCB2 = hCB2 (Homo sapiens, UniProt P34972); test: CB2 receptor binding affinity (hCB2); conditions: stated in introduction, no method or reference given
CYP3A4 = CYP3A4 (Homo sapiens, UniProt P08684); test: CYP phenotyping using CYP specific chemical inhibitors; format: in vitro ADME; conditions: preliminary
[5] = Microsomal stability, mouse liver microsomes; format: in vitro ADME; parameters: microsomal CLint / half-life: dose or concentration left out as unconfirmed; conditions: for half-life: mouse, liver microsomes, pH 7.4, mouse liver microsomes, read-out: t1/2 (min) (Mean ± S.D.); for CLint scaled: read-out: CLint (ml/min/kg) (Mean ± S.D.)
Description: as §1, §2, §3

[6] = mouse, iv, I.V. 2 mg/kg, plasma
[7] = mouse, plasma, po, 8 mg/kg, oral 8 mg/kg

Sequence of CYP3A4 (P08684 whole entry): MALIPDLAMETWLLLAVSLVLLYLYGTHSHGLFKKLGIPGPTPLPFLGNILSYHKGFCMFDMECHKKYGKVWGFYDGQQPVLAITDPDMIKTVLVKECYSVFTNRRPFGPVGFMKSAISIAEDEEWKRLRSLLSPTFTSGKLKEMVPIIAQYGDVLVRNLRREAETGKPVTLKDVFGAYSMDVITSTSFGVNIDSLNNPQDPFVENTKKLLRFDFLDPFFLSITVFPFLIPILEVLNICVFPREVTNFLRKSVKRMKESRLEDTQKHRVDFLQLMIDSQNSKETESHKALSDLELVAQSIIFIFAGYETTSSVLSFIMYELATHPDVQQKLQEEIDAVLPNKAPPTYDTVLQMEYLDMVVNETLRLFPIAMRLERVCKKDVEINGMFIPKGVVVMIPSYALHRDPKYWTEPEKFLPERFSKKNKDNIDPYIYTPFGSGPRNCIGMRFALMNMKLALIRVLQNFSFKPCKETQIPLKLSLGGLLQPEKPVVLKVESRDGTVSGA
Sequence of hCB2 (P34972 whole entry): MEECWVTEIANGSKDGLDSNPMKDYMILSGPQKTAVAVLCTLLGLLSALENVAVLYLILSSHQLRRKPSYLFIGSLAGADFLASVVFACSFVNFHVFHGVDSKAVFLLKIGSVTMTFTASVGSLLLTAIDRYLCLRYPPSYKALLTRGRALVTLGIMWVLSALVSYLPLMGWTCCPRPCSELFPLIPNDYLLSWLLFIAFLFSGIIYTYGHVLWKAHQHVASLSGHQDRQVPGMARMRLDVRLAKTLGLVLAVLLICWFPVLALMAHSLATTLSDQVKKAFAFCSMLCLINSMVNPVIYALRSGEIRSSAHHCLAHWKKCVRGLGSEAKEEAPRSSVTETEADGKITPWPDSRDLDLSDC
Sequence of mCB2 (P47936 whole entry): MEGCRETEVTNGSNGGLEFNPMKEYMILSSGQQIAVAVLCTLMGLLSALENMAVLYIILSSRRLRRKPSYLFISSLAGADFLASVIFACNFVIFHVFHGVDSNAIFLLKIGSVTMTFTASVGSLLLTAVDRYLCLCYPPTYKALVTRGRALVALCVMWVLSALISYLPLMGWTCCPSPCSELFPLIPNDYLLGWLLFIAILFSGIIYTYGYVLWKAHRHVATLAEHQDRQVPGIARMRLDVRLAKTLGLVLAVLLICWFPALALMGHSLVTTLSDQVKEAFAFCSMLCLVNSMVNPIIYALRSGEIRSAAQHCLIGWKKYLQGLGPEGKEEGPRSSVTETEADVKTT

**Q.** Which results are given for O=C(NC12CC3CC(CC(C3)C1)C2)c1nn(CCCn2ccnn2)c2ccccc12 [AM9338, 1-(3-(1H-1,2,3-triazol-1-yl)propyl)-N-(adamantan-1-yl)-1H-indazole-3-carboxamide]?
**A.** Ki (mCB2): 2.3 nM; t1/2 (min) (Mean ± S.D.) ([1]; human liver microsomes, 37°C, presence of NADPH): 3.3 ± 0.6 min; Stability in absence of NADPH ([1]; human microsomes, 37°C, no NADPH, tested up to 2 h): stable; half-life ([1]; 37°C, presence of NADPH): < 4 min; microsomal CLint ([1]; pH 7.4, human liver microsomes, presence of NADPH, read-out: CLint (µl/min/mg) (Mean ± S.D.)): 420 ± 93 µL/min/mg; Systemic plasma clearance as share of hepatic blood flow ([2]; I.V. 2 mg/kg): 85 % of hepatic blood flow; t1/2 ([2]; I.V. 2 mg/kg, terminal half-life, 2 mg/kg): 16.1 min; AUC [2, 6]: 438 ng·h/mL; C0 [2, 6]: 2110 ng/mL; clearance [2, 6]: 75.9 mL/min/kg; AUC ([2]; mouse, oral 8 mg/kg, plasma): 267 ng·h/mL; half-life ([2]; mouse, plasma, iv, 2 mg/kg, I.V. 2 mg/kg, terminal half-life): 16 min; Vd ([2]; mouse, plasma, iv, I.V. 2 mg/kg, read-out: Vd): 1.76 L/kg; Tmax ([2]; mouse, plasma, oral 8 mg/kg): 60 min; bioavailability ([2]; mouse, plasma, oral, 8 mg/kg, read-out: Bioavailability): ~15%; Cmax [2, 7]: 240 ng/mL; half-life [2, 7]: 113 min; CL ([2]; oral 8 mg/kg): 489 mL/min/kg; Vd ([2]; oral 8 mg/kg): 79.9 L/kg; bioavailability [2]: 15.5%; Cmax (Oral) ([2]; oral 8 mg/kg, plasma, 8 mg/kg): 239 ± 230 ng/mL; microsomal CLint ([3]; pH 7.4, rat liver microsomes, presence of NADPH, read-out: CLint (µl/min/mg) (Mean ± S.D.)): 830 ± 136 µL/min/mg; Stability in absence of NADPH ([3]; rat microsomes, 37°C, no NADPH, tested up to 2 h): stable; Extent of metabolism of parent [4]: almost completely metabolized; Ki (hCB2): 3 nM; Major CYP isoform responsible for the adamantyl oxidations (CYP3A4): CYP3A4; Stability in absence of NADPH ([5]; mouse microsomes, 37°C, no NADPH, tested up to 2 h): stable; microsomal CLint ([5]; pH 7.4, mouse liver microsomes, presence of NADPH, read-out: CLint (µl/min/mg) (Mean ± S.D.)): 2950 ± 282 µL/min/mg

**Q.** For O=C(NC12CC3CC(C1)C(O)C(C2)C3O)c1nn(CCCn2ccnn2)c2ccccc12 (stereo not shown) [M2], which half-life ([1]; 37°C, presence of NADPH) is on record?
**A.** 30.8 ± 6.7 min

**Q.** And the CLint scaled ([1]; pH 7.4, human liver microsomes)?
**A.** 54 ± 4 mL/min/kg

**Q.** What about the CLint scaled ([3]; pH 7.4, rat liver microsomes) of the same compound?
**A.** 93 ± 10 mL/min/kg

**Q.** What about the half-life ([3]; 37°C, presence of NADPH) of the same compound?
**A.** 26.8 ± 6.6 min

**Q.** And the half-life ([5]; 37°C, presence of NADPH)?
**A.** 10.5 ± 0.64 min

**Q.** And the CLint scaled ([5]; pH 7.4, mouse liver microsomes)?
**A.** 520 ± 54 mL/min/kg

**Q.** Which results are given for O=C(NC12CC3CC(C1)C(O)C(C3)C2)c1nn(CCCn2ccnn2)c2ccccc12 (stereo not shown) [M1]?
**A.** half-life ([1]; 37°C, presence of NADPH): 13.1 ± 2.48 min; CLint scaled ([1]; pH 7.4, human liver microsomes): 121 ± 20 mL/min/kg; CLint scaled ([3]; pH 7.4, rat liver microsomes): 565 ± 4.4 mL/min/kg; half-life ([3]; 37°C, presence of NADPH): 4.41 ± 0.31 min; half-life ([5]; 37°C, presence of NADPH): 2.02 ± 0.11 min; CLint scaled ([5]; pH 7.4, mouse liver microsomes): 2730 ± 223 mL/min/kg
